Source: patent US8178688B2, “Benzamidine derivatives, process for the preparation thereof and pharmaceutical composition comprising the same” (Dong Wha Pharmaceutical Co., Ltd., priority 2004, dated 2012)

Test system: osteoclast differentiation
Assay: Inhibitory effects on osteoclast differentiation (co-culture of bone marrow cells with osteoblast, TRAP staining)
Assay type: cell-based, mice
Conditions: Mus musculus, Osteoclast, 168 h, read-out: % inhibitory activity on osteoclastogenesis
Protocol: The effect of benzamidine derivatives of the present invention on osteoclast proliferation and differentiation process was evaluated via co-culture with osteoblast.
Tibia and Femora were aseptically ectomized from male ddY mice of 6-8 weeks to harvest bone marrow cells by using a syringe (21G, Korea Green Cross).
The bone marrow cells were suspended in 5 mL α-MEM medium (Gibco BRL Co.) containing sodium bicarbonate (2.0 g/L), streptomycin (100 mg/L) and penicillin ([…]). The harvested cells were centrifuged at 600×g for 5 mins to collect the whole quantity. To remove the red blood cells within bone marrow cells, 3 mL of Tris HCl (0.83% NH4Cl, pH7.5) was added and well mixed. After centrifuging above cells, the numbers of bone marrow cells were counted and then, the bone marrow cells were immediately used for co-culture system with osteoblast.
The calvaria were aseptically ectomized from neonate ICR mice of 1˜2 days, washed with PBS solution and incubated with a mixture of enzyme solution (0.2% collagenase and 0.1% dispase) at 37° C. gentle shaker. This procedure was sequentially repeated (10, 10, 10, 20, 20 and 20 mins), and then the calvaria cells having the characteristics of osteoblast mostly released from III-VI digestion groups were collected and washed with the medium (serum-free α-MEM). The washed cells were cultivated in α-MEM medium containing 10% FBS for 2˜3 days. After subculturing, these cells were used for this experiment, and diluted to reach the concentration of 1×10^6 cell/mL for storage at −70° C.
Benzamidine derivatives of the present invention were dissolved in a sterile distilled water or ethanol to make desired concentrations following dilution. The final volume of specimen added to the medium was determined at the ratio of 1:1000.
Bone marrow cells prepared, in the above and osteoblast from calvaria were co-cultured for osteoclast differentiation. Both bone marrow cells (25,000 cells/cm^2) and osteoblast (10,000 cells/cm^2) were plated on a 96 well plate in α-MEM medium containing FBS with specimen, and then cultured with test materials for 7 days. Differentiation factors, such as dexamethasone (10^−7M) and vitamin D3 (10^−8M), were also continuously added to the medium from the first day of cultivation. The medium was changed with fresh media containing a mixture of specimens and differentiation factors every 2˜3 day.
TRAP was used as a marker to measure osteoclast in consideration of its characteristics showing a positive reaction to TRAP staining solution. TRAP staining solution was prepared in a manner that 5 mg of naphtol AS-MS phosphate (sigma N-4875), a substrate and 25 mg of coloring agent (Fast Red Violet LB salt) were dissolved in N,N-dimethylformamide (about 0.5 mL), 0.1N NaHCO3 buffer solution (50 mL) containing 50 mM tartaric acid was added, and the reaction mixture was stored at refrigerator prior to use.
After culturing the cells for 7 days, the medium was removed from the wells, the cells were once washed with PBS solution and fixed to PBS containing 10% formalin for 2˜5 mins. The cells were fixed again in a mixed solution of ethanol and acetone (1/1) for about 1 min, and dried off. The cells were further treated by TRAP staining solution for 15 mins and washed with PBS. The experimental results were measured by counting the number of osteoclasts with 3 or more nuclei showing TRAP-positive reaction under a microscopic examination. Each of tests was confirmed over three times for gaining more reliable data.
As shown in the following table 7, the inhibitory effect of each experimental group on the differentiation of osteoclast versus controls was expressed by inhibitory percentage value.

Point of comparison: `CCCN1CCC(c2nc(-c3ccc(OCCCCCOc4ccc(C(=N)NO)cc4)cc3)c(C)s2)CC1` [Example 72, N-hydroxy-4-(5-[4-(5-methyl-2-(1-propyl-piperidin-4-yl)-1,3-thiazol-4-yl)phenoxy]pentoxy)-benzamidine], inhibition at 1 µM 67.9%. Against it:
- CC(C)c1sc(C2CCCNC2)nc1-c1ccc(OCCCCCOc2ccc(C(=N)NO)cc2)cc1 (centres unmarked) [Example 83, N-hydroxy-4-(5-[4-(5-isopropyl-2-(piperidin-3-yl)-1,3-thiazol-4-yl)phenoxy]pentoxy)-benzamidine] — lower, 23.8%

Same assay, conditions: Mus musculus, Osteoclast, 168 h; 1 m; co-culture of bone marrow cells and osteoblast, 7 days, TRAP-positive osteoclasts versus controls; read-out: % inhibitory activity on osteoclastogenesis

Point of comparison: `N=C(NO)c1ccc(OCCCCCOc2ccc(-c3nc(-c4cccnc4)sc3CCCl)cc2)cc1` [Example 80, N-hydroxy-4-(5-[4-(5-(2-chloroethyl)-2-(pyridin-3-yl)-1,3-thiazol-4-yl)phenoxy]pentoxy)-benzamidine], inhibition at 1 µM 96.4%. Against it:
- CC(C)c1sc(CN2CCOCC2)nc1-c1ccc(OCCCCCOc2ccc(C(=N)NO)cc2)cc1 [Example 70, N-hydroxy-4-(5-[4-(5-isopropyl-2-morpholinomethyl-1,3-thiazol-4-yl)phenoxy]pentoxy)-benzamidine] — lower, 32.7%
- CC(C)c1sc(CN)nc1-c1ccc(OCCCCCOc2ccc(C(=N)NO)cc2)cc1 [Example 73, N-hydroxy-4-(5-[4-(5-isopropyl-2-aminomethyl-1,3-thiazol-4-yl)phenoxy]pentoxy)-benzamidine] — lower, 54.2%
- C=Cc1sc(C)nc1-c1ccc(OCCCCCOc2ccc(C(=N)NO)cc2)cc1 [Example 74, N-hydroxy-4-(5-[4-(5-vinyl-2-methyl-1,3-thiazol-4-yl)phenoxy]pentoxy)-benzamidine] — lower, 92.6%
- Cc1nc(-c2ccc(OCCCCCOc3ccc(C(=N)NO)cc3)cc2)c(CO)s1 [Example 75, N-hydroxy-4-(5-[4-(5-hydroxymethyl-2-methyl-1,3-thiazol-4-yl)phenoxy]pentoxy)-benzamidine] — lower, 40.2%
- COCc1sc(C)nc1-c1ccc(OCCCCCOc2ccc(C(=N)NO)cc2)cc1 [Example 76, N-hydroxy-4-(5-[4-(5-methoxymethyl-2-methyl-1,3-thiazol-4-yl)phenoxy]pentoxy)-benzamidine] — higher, 99%
- N=C(NO)c1ccc(OCCCCCOc2ccc(-c3nc(N)sc3CCCl)cc2)cc1 [Example 77, N-hydroxy-4-(5-[4-(5-(2-chloroethyl)-2-amino-1,3-thiazol-4-yl)phenoxy]pentoxy)-benzamidine] — lower, 83.3%
- C=Cc1sc(N)nc1-c1ccc(OCCCCCOc2ccc(C(=N)NO)cc2)cc1 [Example 78, N-hydroxy-4-(5-[4-(5-vinyl-2-amino-1,3-thiazol-4-yl)phenoxy]pentoxy)-benzamidine] — higher, 97.5%
- C=Cc1sc(-c2cccnc2)nc1-c1ccc(OCCCCCOc2ccc(C(=N)NO)cc2)cc1 [Example 79, N-hydroxy-4-(5-[4-(5-vinyl-2-(pyridin-3-yl)-1,3-thiazol-4-yl)phenoxy]pentoxy)-benzamidine] — the same, 96.4%
- N=C(NO)c1ccc(OCCCCCOc2ccc(-c3nc(N)sc3C3CCCC3)cc2)cc1 [Example 81, N-hydroxy-4-(5-[4-(2-amino-5-cyclopentyl-1,3-thiazol-4-yl)phenoxy]pentoxy)-benzamidine] — lower, 29.5%
- CCc1sc(CN)nc1-c1ccc(OCCCCCOc2ccc(C(=N)NO)cc2)cc1 [Example 82, N-hydroxy-4-(5-[4-(5-ethyl-2-aminomethyl-1,3-thiazol-4-yl)phenoxy]pentoxy)-benzamidine] — lower, 8.9%
- CCNc1nc(-c2ccc(OCCCCCOc3ccc(C(=N)NO)cc3)cc2)cs1 [Example 84, N-hydroxy-4-(5-[4-(2-ethylamino-1,3-thiazol-4-yl)phenoxy]pentoxy)-benzamidine] — higher, 100%
- CCS(=O)(=O)Nc1nc(-c2ccc(OCCCCCOc3ccc(C(=N)NO)cc3)cc2)cs1 [Example 85, N-hydroxy-4-(5-[4-(2-ethanesulfonylamino-1,3-thiazol-4-yl)phenoxy]pentoxy)-benzamidine] — lower, 5.3%
- N=C(NO)c1ccc(OCCCCCOc2ccc(-c3nc(NC(=O)c4cccnc4)sc3CC3CCCC3)cc2)cc1 [Example 89, N-hydroxy-4-(5-[4-(5-cyclopentylmethyl-2-(3-pyridylcarbonyl)amino-1,3-thiazol-4-yl)phenoxy]pentoxy)-benzamidine] — lower, 81.2%
- Cc1sc(NC(=O)CO)nc1-c1ccc(OCCCCCOc2ccc(C(=N)NO)cc2)cc1 [Example 90, N-hydroxy-4-(5-[4-(2-hydroxyacetylamino-5-methyl-1,3-thiazol-4-yl)phenoxy]pentoxy)-benzamidine] — lower, 61.9%
- Cc1sc(NC(=O)c2cccnc2)nc1-c1ccc(OCCCCCOc2ccc(C(=N)NO)cc2)cc1 [Example 92, N-hydroxy-4-(5-[4-(5-methyl-2-(3-pyridylcarbonyl)amino-1,3-thiazol-4-yl)phenoxy]pentoxy)-benzamidine] — lower, 49%
- COCCNc1nc(-c2ccc(OCCCCCOc3ccc(C(=N)NO)cc3)cc2)c(C)s1 [Example 94, N-hydroxy-4-(5-(4-(2-(2-methoxyethyl)amino-5-methyl-1,3-thiazol-4-yl)phenoxy]pentoxy)-benzamidine] — lower, 77.2%
- CCc1sc(NS(=O)(=O)CC)nc1-c1ccc(OCCCCCOc2ccc(C(=N)NO)cc2)cc1 [Example 95, N-hydroxy-4-(5-[4-(2-ethanesulfonylamino-5-ethyl-1,3-thiazol-4-yl)phenoxy]pentoxy)-benzamidine] — lower, 47.1%
- CCNc1nc(-c2ccc(OCCCCCOc3ccc(C(=N)NO)cc3)cc2)c(CC)s1 [Example 97, N-hydroxy-4-(5-[4-(5-ethyl-2-ethylamino-1,3-thiazol-4-yl)phenoxy]pentoxy)-benzamidine] — lower, 42.6%
- CCc1sc(NC(=O)c2cccnc2)nc1-c1ccc(OCCCCCOc2ccc(C(=N)NO)cc2)cc1 [Example 101, N-hydroxy-4-(5-[4-(5-ethyl-2-(3-pyridylcarbonyl)amino-1,3-thiazol-4-yl)phenoxy]pentoxy)-benzamidine] — lower, 43.7%
- CCc1sc(NCCOC)nc1-c1ccc(OCCCCCOc2ccc(C(=N)NO)cc2)cc1 [Example 102, N-hydroxy-4-(5-[4-(5-ethyl-2-(2-methoxyethyl)amino-1,3-thiazol-4-yl)phenoxy]pentoxy)-benzamidine] — the same, 96.4%
- CNc1nc(-c2ccc(OCCCCCOc3ccc(C(=N)NO)cc3)cc2)c(C(C)C)s1 [Example 103, N-hydroxy-4-(5-[4-(5-isopropyl-2-methylamino-1,3-thiazol-4-yl)phenoxy]pentoxy)-benzamidine] — lower, 25.4%
- CCNc1nc(-c2ccc(OCCCCCOc3ccc(C(=N)NO)cc3)cc2)c(C(C)C)s1 [Example 104, N-hydroxy-4-(5-[4-(2-ethylamino-5-isopropyl-1,3-thiazol-4-yl)phenoxy]pentoxy)-benzamidine] — lower, 40%
- CCCCc1sc(NC)nc1-c1ccc(OCCCCCOc2ccc(C(=N)NO)cc2)cc1 [Example 105, N-hydroxy-4-(5-[4-(5-butyl-2-methylamino-1,3-thiazol-4-yl)phenoxy]pentoxy)-benzamidine] — lower, 61.1%
- CCCCc1sc(NCC)nc1-c1ccc(OCCCCCOc2ccc(C(=N)NO)cc2)cc1 [Example 106, N-hydroxy-4-(5-[4-(5-butyl-2-ethylamino-1,3-thiazol-4-yl)phenoxy]pentoxy)-benzamidine] — lower, 0%
- CCNc1nc(-c2ccc(OCCCCCOc3ccc(C(=N)NO)cc3)cc2)c(Cc2ccccc2)s1 [Example 108, N-hydroxy-4-(5-[4-(5-benzyl-2-ethylamino-1,3-thiazol-4-yl)phenoxy]pentoxy)-benzamidine] — lower, 25.4%
- CCCNc1nc(-c2ccc(OCCCCCOc3ccc(C(=N)NO)cc3)cc2)c(C2CCCC2)s1 [Example 113, N-hydroxy-4-(5-[4-(5-cyclopentyl-2-propylamino-1,3-thiazol-4-yl)phenoxy]pentoxy)-benzamidine] — lower, 86.7%
